PMC8025302, “Structural and biophysical characterization of the tandem substrate-binding domains of the ABC importer GlnPQ” (Open Biology, 2021)
Where “and” joins values, the source holds several entries; their conditions need not be identical. Equal entries are not always repeated.

Columns and labels:
[1] = target: SBD1 of GlnPQ (isolated domain); set-up: method as in PMID 23994008; conditions: ITC; cited from earlier work
[2] = target: SBD1 within the tandem SBD1-2 (Lactococcus lactis, UniProt Q9CES5); experiment: Isothermal titration calorimetry, SBD1 site of tandem SBD1-2; type: binding; conditions: SBD1 within tandem SBD1-2; ITC, 25°C, pH 6.0
Experimental: (§1) ITC experiments were performed as described previously. Briefly, the purified SBDs were dialysed overnight against 50 mM KPi (pH 6.0), 1 mM EDTA and 1 mM NaN3. Isothermal titration experiments were carried out using an ITC-200 (MicroCal, GE Healthcare, Buckinghamshire, UK). For these experiments, the substrate was prepared in the dialysis buffer to minimize mixing effects. All experiments were carried out at 25°C and a mixing rate of 1000 r.p.m. The concentration of SBD1 and SBD2 and associated tandem mutants varied between 20 and 100 µM during the experiment, depending on the expected KD of the protein under investigation. For titration experiments with asparagine typically the concentration of ligand in the syringe was 8–10× the concentration in the cell. […] The recorded data was approximated by a one- respectively two-site binding model and fitted using the nonlinear curve-fitting tool provided by ORIGIN 8 (Origin Lab Corp., Northhampton, MA) to describe the molar enthalpy change ΔH for protein–ligand complex formation, the stoichiometry n and the corresponding association constant KA. […] The molar entropy change ΔS was calculated from ΔG = ΔH − TΔS. […] For analysing the glutamine binding to SBD1-Δ5-SBD2, which features two binding sites, we first determined the parameters for the single site using the conditions of asparagine binding to SBD1. […]

[3] = tested on: tandem SBD1-2 wild-type protein; experiment: Differential scanning calorimetry, thermostability of tandem with ligand; type: binding, Lactococcus lactis; conditions: DSC; unliganded 59°C
Experimental: Furthermore, we verified the stability of the proteins using differential scanning calorimetry (DSC) by analysing thermostability and potential differences in folding of wild-type SBD1-2 and linker mutants (figure 6b,c; electronic supplementary material, table S7). In the unliganded state, the melting temperature of both single SBDs was 59°C [41], which is the same for all tandem SBD1-2 mutants. The addition of either asparagine or glutamine increased the protein stability of the tandem resulting in a higher melting temperature of approximately 62°C for SBD1 and greater than or equal to 69°C for SBD2. […] We assign the peak shifts to a specific SBD by comparing the melting temperatures of the tandem SBD1-2 to that of the single SBDs. […] We find that linker deletions of 5 and 8 amino acids increase the stability of the proteins by 2–3°C. Maximal stabilization of SBD2 in SBD1-2 tandems is observed in the presence of glutamine, […] (figure 6c).
To determine the proteins thermal stability, DSC experiments were performed as described previously. Briefly, the purified SBDs were dialysed overnight against the DSC working buffer, i.e. 50 mM KPi (pH 7.0), 150 mM KCl, 1 mM EDTA and 1 mM NaN3. DSC experiments with working buffer solutions containing 4 µM of an SBD-mutant and 5 mM substrate were conducted on a VP-DSC Calorimeter (MicroCal, GE Healthcare, Buckinghamshire). The melting temperature Tm was determined by ORIGIN 8 (Origin Lab Corp, Northampton, MA).

[4] = target: SBD2 within the tandem SBD1-2 (Lactococcus lactis, UniProt Q9CES5); experiment: Isothermal titration calorimetry, SBD2 site of tandem SBD1-2; type: binding; conditions: ITC
Experimental: as §1

[5] = target: SBD2 of GlnPQ (isolated domain); set-up: method as in PMID 23994008; conditions: ITC; cited from earlier work

SBD1 within the tandem SBD1-2, sequence (Q9CES5 entry or part of it): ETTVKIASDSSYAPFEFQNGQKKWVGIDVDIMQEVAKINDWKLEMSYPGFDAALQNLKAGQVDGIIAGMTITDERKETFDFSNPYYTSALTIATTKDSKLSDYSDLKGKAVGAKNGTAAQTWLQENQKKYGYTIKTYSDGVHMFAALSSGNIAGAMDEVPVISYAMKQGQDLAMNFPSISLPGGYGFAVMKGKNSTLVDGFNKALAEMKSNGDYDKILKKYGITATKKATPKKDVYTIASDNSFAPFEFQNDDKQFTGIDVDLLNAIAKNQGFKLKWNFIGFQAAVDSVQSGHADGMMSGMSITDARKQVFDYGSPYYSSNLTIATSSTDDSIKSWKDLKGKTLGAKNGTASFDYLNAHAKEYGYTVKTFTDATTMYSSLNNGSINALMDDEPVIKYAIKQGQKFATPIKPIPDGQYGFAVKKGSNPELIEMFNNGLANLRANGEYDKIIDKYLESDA
SBD2 within the tandem SBD1-2, sequence (Q9CES5 entry or part of it): as above

SMILES	Kd [1] [µM]	Kd [2]	melting temperature of SBD1 in the tandem after addition of ligand [3]	melting temperature of SBD2 in the tandem after addition of ligand [3]	Kd ([4]; SBD2 within tandem SBD1-2, SBD1 blocked with 1 mM asparagine) [µM]	Kd ([4]; SBD2 within tandem SBD1-2, no asparagine, 25°C, pH 6.0) [µM]	Kd [5] [µM]
NC(=O)C[C@H](N)C(=O)O [asparagine]	0.2	0.4 ± 0.1 µM	approximately 62 °C	greater than or equal to 69 °C			
NC(=O)CC[C@H](N)C(=O)O [glutamine]	90	180 µM and ~100 µM	approximately 62 °C	greater than or equal to 69 °C	0.9	0.6 ± 0.2	~0.9
